Experimental data: patent US20050142169A1, “Palatability enhanced composition and method for animal consumption” (priority 2003, published 2005)
Like-named read-outs stand apart in the source and are kept apart here.

Legend:
cats = assay: two-bowl preference test, Example 6 (Feline w/d); format: in vivo, cat; conditions: dry wt. of kibble
From the text: Finally, a commercial dry palatant enhancer (1.4% dry weight basis) was topically applied to the dry kibbles to complete the test composition.

dogs [1] = assay: two-bowl preference test, Example 3 (Canine w/d, 3.5% test flavor); format: in vivo, dog; conditions: dry wt. of kibble, test flavor 3.5%
Description: Each of the test flavors (3.5%, dry weight basis) was topically applied to a dry, commercial dog food (Canine w/d from Hill's Pet Nutrition, Inc.) after topical application of a commercial dry palatant enhancer in choice white grease (0.6%, dry weight basis) to form a test composition. Each test composition was compared against a control composition in a palatability test as described in Example 1. The control compositions were prepared by topically applying the commercial liquid palatant enhancer (3.5% dry weight basis) to the dry, commercial dog food (Canine w/d) after application of a commercial dry palatant enhancer in choice white grease (0.6%, dry weight basis). Palatability was determined by comparing the test composition and the control composition in a standard two-bowl preference test over two days with 20 dogs as described in Example 1.

dogs [2] = conditions: for Intake Ratio / Preference (%) control composition / Preference (%) test composition / Status (vs. control): dry wt. of kibble, dogs, Hill's Canine Maintenance Adult
From the text: The experiment comprised mixing various amounts of 2,5-dimethyl-4-hydroxy-3(2H)-furanone (0.2% to 1.2%) with a commercial liquid palatant enhancer as a carrier to form a flavored palatant (hereinafter test flavor). The test flavor (2.0%, dry weight basis) was topically applied to a dry, commercial dog food (Hill's Canine Maintenance Adult, a Science Diet for adult dogs commercially available from Hill's Pet Nutrition, Inc., Topeka, Kans.) after sequential application of soy bean oil (1.2%, dry weight basis) and choice white grease (7.9%, dry weight basis) to form a test composition.
Each test composition was compared against a control composition in a palatability test. The control compositions were prepared by topically applying the commercial liquid palatant enhance (2.0% dry weight basis) to the dry, commercial dog food (Hill's Canine Maintenance Adult) after sequential application of soy bean oil (1.2%, dry weight basis) and choice white grease (7.9%, dry weight basis). Palatability was determined by comparing the test composition and the control composition in a standard two-bowl preference test over two days with 20 dogs.

[3] = Exp. No. 7, second set of experiments, 1 ppm
[4] = Exp. No. 8, second set of experiments, 2 ppm
[5] = Exp. No. 9, second set of experiments, 3 ppm
[6] = Exp. No. 10, second set of experiments, 4 ppm
[7] = Exp. No. 11, second set of experiments, 5 ppm
[8] = Exp. No. 12, second set of experiments, 10 ppm

SMILES: CC1=C(O)C(=O)C(C)O1 (stereo not drawn) [2,5-dimethyl-4-hydroxy-3(2H)-furanone]
- Preference (%) test composition (cats; Exp. No. 6, 10 ppm): 95.8%
- Status (vs. control) (cats; Exp. No. 6, 10 ppm): Win
- Intake Ratio (cats; [3]): 0.9077
- Preference (%) control composition (cats; [3]): 4.2%
- Preference (%) test composition (cats; [3]): 95.8%
- Status (vs. control) (cats; [3]): Win
- Intake Ratio (cats; [4]): 0.7613
- Preference (%) control composition (cats; [4]): 16.0%
- Preference (%) test composition (cats; [4]): 84.0%
- Status (vs. control) (cats; [4]): Win
- Intake Ratio (cats; [5]): 0.8206
- Preference (%) control composition (cats; [5]): 13.6%
- Preference (%) test composition (cats; [5]): 86.4%
- Status (vs. control) (cats; [5]): Win
- Intake Ratio (cats; [6]): 0.8957
- Preference (%) control composition (cats; [6]): 4.2%
- Preference (%) test composition (cats; [6]): 95.7%
- Status (vs. control) (cats; [6]): Win
- Intake Ratio (cats; [7]): 0.8596
- Preference (%) control composition (cats; [7]): 12.5%
- Preference (%) test composition (cats; [7]): 87.5%
- Status (vs. control) (cats; [7]): Win
- Intake Ratio (cats; [8]): 0.7976
- Preference (%) control composition (cats; [8]): 15.0%
- Preference (%) test composition (cats; [8]): 85.0%
- Status (vs. control) (cats; [8]): Win
- Intake Ratio (dogs [1]; Exp. No. 1, 87.1 ppm): 0.7301
- Preference (%) control composition (dogs [1]; Exp. No. 1, 87.1 ppm): 16.7%
- Preference (%) test composition (dogs [1]; Exp. No. 1, 87.1 ppm): 83.3%
- Status (vs. control) (dogs [1]; Exp. No. 1, 87.1 ppm): Win
- Intake Ratio (dogs [1]; Exp. No. 2, 130.5 ppm): 0.7323
- Preference (%) control composition (dogs [1]; Exp. No. 2, 130.5 ppm): 8.0%
- Preference (%) test composition (dogs [1]; Exp. No. 2, 130.5 ppm): 88.0%
- Status (vs. control) (dogs [1]; Exp. No. 2, 130.5 ppm): Win
- Intake Ratio (dogs [1]; Exp. No. 3, 174.0 ppm): 0.6669
- Preference (%) control composition (dogs [1]; Exp. No. 3, 174.0 ppm): 24.0%
- Preference (%) test composition (dogs [1]; Exp. No. 3, 174.0 ppm): 76.0%
- Status (vs. control) (dogs [1]; Exp. No. 3, 174.0 ppm): Win
- Intake Ratio (dogs [1]; Exp. No. 4, 217.5 ppm): 0.5713
- Preference (%) control composition (dogs [1]; Exp. No. 4, 217.5 ppm): 40.0%
- Preference (%) test composition (dogs [1]; Exp. No. 4, 217.5 ppm): 60.0%
- Status (vs. control) (dogs [1]; Exp. No. 4, 217.5 ppm): Parity
- Intake Ratio (dogs [2]; Exp. No. 2, 43.5 ppm): 0.5705
- Preference (%) control composition (dogs [2]; Exp. No. 2, 43.5 ppm): 27.8%
- Preference (%) test composition (dogs [2]; Exp. No. 2, 43.5 ppm): 61.1%
- Status (vs. control) (dogs [2]; Exp. No. 2, 43.5 ppm): Parity
- Intake Ratio (dogs [2]; Exp. No. 3, 87.1 ppm): 0.7361
- Preference (%) control composition (dogs [2]; Exp. No. 3, 87.1 ppm): 10.0%
- Preference (%) test composition (dogs [2]; Exp. No. 3, 87.1 ppm): 90.0%
- Status (vs. control) (dogs [2]; Exp. No. 3, 87.1 ppm): Win
- Intake Ratio (dogs [2]; Exp. No. 4, 130.5 ppm): 0.5673
- Preference (%) control composition (dogs [2]; Exp. No. 4, 130.5 ppm): 25.0%
- Preference (%) test composition (dogs [2]; Exp. No. 4, 130.5 ppm): 50.0%
- Status (vs. control) (dogs [2]; Exp. No. 4, 130.5 ppm): Win
- Intake Ratio (dogs [2]; Exp. No. 5, 217.5 ppm): 0.6575
- Preference (%) control composition (dogs [2]; Exp. No. 5, 217.5 ppm): 40.0%
- Preference (%) test composition (dogs [2]; Exp. No. 5, 217.5 ppm): 60.0%
- Status (vs. control) (dogs [2]; Exp. No. 5, 217.5 ppm): Win
- Intake Ratio (dogs [2]; Exp. No. 6, 217.5 ppm): 0.8206
- Preference (%) control composition (dogs [2]; Exp. No. 6, 217.5 ppm): 5.0%
- Preference (%) test composition (dogs [2]; Exp. No. 6, 217.5 ppm): 95.0%
- Status (vs. control) (dogs [2]; Exp. No. 6, 217.5 ppm): Win
- intolerance of the test palatant following intake (dogs [2]; dog, in vivo): No evidence of any intolerance
